Each structure is given as a SMILES string.

In one data set the test system is LDHA.
Test: not given
Also on record: method as in PMID 22417091. The following applies: NMR and SPR fragment based hit identification series; read-out: IC50 (LDHA inhibition); cited from earlier work.
As to `CCCSc1nc2ccc(NC(=O)CCNC(=O)CCCc3ccc(CC(C(=O)O)C(=O)O)cc3)cc2s1` [A], the IC50 (in general, the concentration needed to halve the response being measured) is 0.27 µM.

A further data set has as its system LDHA.
Test: not given
Also on record: method as in PMID 30108883. Conditions: docking-based virtual screening hit; read-out: IC50 (LDHA inhibition potency in vitro); cited from earlier work.
`CCc1cc(=O)c(O)c([C@@H](CC(N)=O)c2cc3ccccc3n(CC(C)C)c2=O)o1` [C]: the IC50 was 0.33 µM.

The target of a further data set is T1, recombinant human LDHA protein (Homo sapiens, UniProt P00338).
T1 construct: purchased Abcam ab93699
As to the kind of experiment: LDHA inhibition assay (Lactate Dehydrogenase Assay Kit, colorimetric). The data set is classed as biochemical. The following applies: mean from three different assays, colorimetric assay measuring absorbance at 450 nm, errors ±5–10%. Here is the method:
All 15 symmetrical compounds were evaluated for their ability to inhibit LDHA, for the comparison galloflavin as a known isoform nonselective LDHA inhibitor[20] was used. Our choice of galloflavin was based on the fact that it is extensively studied as potent anticancer agents in recent years; additionally, galloflavin is already commercially available.
Lactate Dehydrogenase Assay Kit (Abcam, ab102526) and recombinant human LDHA protein (Abcam, ab93699) were used to assess the inhibitory effect of the tested compounds. First we generated a NADH standard curve for colorimetric detection by measuring the OD (450 nm) at different molar amounts of NADH. The linear regression equation of the curve was derivatized in Graphpad Prism. Tested compounds were dissolved in DMSO and their inhibitory activity was assessed at 140 and 300 μM strength. Galloflavin (Sigma, SML0776) at the same molar concentration was used as a known LDH inhibitor. The master reaction mix composed of LDH assay buffer and 10 ng human LDHA […] per reaction was prepared. Tested compounds were added and the final reaction volume was adjusted to 50 µL. Absorbance at 450 nm was taken after 2-3 minutes (T-initial) and continued every minute for 118 mins (T-final). The change in measurement over time (delta A450) was calculated as T-final minus T-initial. The amount of NADH generated by the assay between T-initial and T-final was deduced by comparing the A450 of each sample to the standard NADH standard curve. […]
As to `COc1cc(-c2cn(CC(=O)Nc3ccc(S(N)(=O)=O)cc3)nn2)cc(-c2cn(CC(=O)Nc3ccc(S(N)(=O)=O)cc3)nn2)c1` [Compound 20a], the IC50 came to 165 µM.

For the compound `COc1cc(-c2cn(CC(=O)NCc3ccc(C(=O)O)cc3)nn2)cc(-c2cn(CC(=O)NCc3ccc(C(=O)O)cc3)nn2)c1` [Compound 21b], the IC50 was found to be 128 µM.

Turning to `O=C(Cn1cc(-c2cccc(-c3cn(CC(=O)NCc4ccc(C(=O)O)cc4)nn3)c2)nn1)NCc1ccc(C(=O)O)cc1` [Compound 11b], the IC50 is 156 µM.

In the case of `COc1cc(-c2cn(CC(=O)Nc3ccc(C(=O)O)cc3)nn2)cc(-c2cn(CC(=O)Nc3ccc(C(=O)O)cc3)nn2)c1` [Compound 20b], the IC50 stood at 127 µM.

Regarding `COc1cc(-c2cn(CC(=O)Nc3ccc([N+](=O)[O-])cc3)nn2)cc(-c2cn(CC(=O)Nc3ccc([N+](=O)[O-])cc3)nn2)c1` [Compound 20c], the IC50 amounted to 163 µM.

For `NS(=O)(=O)c1ccc(CNC(=O)Cn2cc(-c3cccc(-c4cn(CC(=O)NCc5ccc(S(N)(=O)=O)cc5)nn4)c3)nn2)cc1` [Compound 11a], the IC50 was found to be 158 µM.

`COc1cc(-c2cn(CC(=O)NCc3ccc(S(N)(=O)=O)cc3)nn2)cc(-c2cn(CC(=O)NCc3ccc(S(N)(=O)=O)cc3)nn2)c1` [Compound 21a]: the IC50 is 173 µM.

As to `O=C(Cn1cc(-c2cncc(-c3cn(CC(=O)Nc4ccc([N+](=O)[O-])cc4)nn3)c2)nn1)Nc1ccc([N+](=O)[O-])cc1` [Compound 15c], the IC50 turned out to be 156 µM.

Take `NS(=O)(=O)c1ccc(CNC(=O)Cn2cc(-c3cncc(-c4cn(CC(=O)NCc5ccc(S(N)(=O)=O)cc5)nn4)c3)nn2)cc1` [Compound 16a]: the IC50 is 174 µM.

With `O=C(Cn1cc(-c2cncc(-c3cn(CC(=O)NCc4ccc(C(=O)O)cc4)nn3)c2)nn1)NCc1ccc(C(=O)O)cc1` [Compound 16b], the IC50 was 117 µM.

Regarding `O=C(Cn1cc(-c2cccc(-c3cn(CC(=O)Nc4ccc([N+](=O)[O-])cc4)nn3)c2)nn1)Nc1ccc([N+](=O)[O-])cc1` [Compound 7c], the IC50 was found to be 172 µM.

On to `O=C(Cn1cc(-c2cccc(-c3cn(CC(=O)Nc4ccc(C(=O)O)cc4)nn3)c2)nn1)Nc1ccc(C(=O)O)cc1` [Compound 7b], for which the IC50 was determined as 120 µM.

As to `O=c1oc2c(cc1O)oc(=O)c1cc(O)c(O)c(O)c12` [Galloflavin, reference compound], the IC50 was 157 µM.

As to `NS(=O)(=O)c1ccc(NC(=O)Cn2cc(-c3cccc(-c4cn(CC(=O)Nc5ccc(S(N)(=O)=O)cc5)nn4)c3)nn2)cc1` [Compound 7a], the IC50 stood at 128 µM.

Consider `NS(=O)(=O)c1ccc(NC(=O)Cn2cc(-c3cncc(-c4cn(CC(=O)Nc5ccc(S(N)(=O)=O)cc5)nn4)c3)nn2)cc1` [Compound 15a], for which the IC50 worked out at 136 µM.

Consider `O=C(Cn1cc(-c2cncc(-c3cn(CC(=O)Nc4ccc(C(=O)O)cc4)nn3)c2)nn1)Nc1ccc(C(=O)O)cc1` [Compound 15b], for which the IC50 was 125 µM.

The subject of a further data set is LDHA.
Test: not given
Further details: method as in PMID 23302067. Conditions: fragment-based hit identification series; read-out: IC50 (LDHA inhibition); cited from earlier work.
`COc1cc(OC[C@@H](O)[C@@H](O)[C@H](O)[C@H](O)CNc2cc(F)cc(-c3ccc(C(=O)O)cn3)c2)c(Cl)cc1NC(=O)CSc1ccc(C(=O)O)cn1` [B]: the IC50 is 0.12 µM.

Tested on in the next data set: not given
Test: not given
Details: not given
For the compound `O=C(Cn1cc(-c2cccc(-c3cn(CC(=O)Nc4ccc(C(=O)O)cc4)nn3)c2)nn1)Nc1ccc(C(=O)O)cc1` [Compound 7b], the melting point (usually the temperature of the solid-liquid transition) lay in the range of 291 to 292 °C.

The record behind these values is paper PMC6009863, “Symmetric molecules with 1,4-triazole moieties as potent inhibitors of tumour-associated lactate dehydrogenase-A” (Journal of Enzyme Inhibition and Medicinal Chemistry, 2017).
